A melting point compilation (Tetko et al.; mined from patent text by program, amines drawn as free bases though some values may be those of a salt)

melting point [°C]	Compound
117 to 119	CC(C)(C)OC(=O)N[C@@H]1CCC(=O)OC1=O
62 to 63	CC(C)OC(=O)c1ccc(OCc2ccccc2)cc1
125 to 126	CC(=O)NC(Cc1ccccc1)C(O)C(Cc1ccccc1)NC(C)=O (stereo unspecified)
170 to 172	COc1ccc(/C(=C/C(=O)O)c2cc(F)cc(F)c2)cc1
178 to 179	O=S1(=O)NCN(C2CC2)c2ccc(Br)cc21
129	CON(C)C(=O)c1cc(Br)cc([N+](=O)[O-])c1N
74 to 76	CCCCCCCOc1ccc(C(=O)O)c(C)c1
131 to 133	CCN(CC)CCOc1ccc2ncn(/C=C/C(=O)OC)c(=O)c2c1
> 300	CC1(C)C(=O)Nc2cc3[nH]c(O)nc3cc21
87 to 88	Cc1c(C)c(C=O)c2c(c1C)CC(C)(C)O2
206	N=C(NO)c1ccc2c(c1)COC(N[C@@H]1CCc3ccccc31)=N2
120 to 122	CC(C)CC=CC(C)C1CCC2C3=CC=C4CC(O)CCC4(C)C3CCC21C (stereo unspecified)
130 to 132	COCC1CN(c2ccc(C3CCCCC3)c(N)c2)C(=O)O1 (racemic)
125 to 127	CC(C(=S)c1ccc(NC=O)nc1)S(C)=O (stereo unspecified)
100 to 101	C=CCONC(=O)Cc1ccc(OC)cc1
86 to 88	CC(C)n1nc(-c2sc(NC(=O)c3ccc(CNCCN4CCOCC4)cc3)nc2-c2ccccc2)ccc1=O
164 to 166	Cc1cc2nc(C)c(=O)n(C)c2cc1C
> 280	COc1ccc(/C=C/c2nc3c([nH]2)c(=O)n(C)c(=O)n3C)c(OC)c1C
128 to 129	CN1C(c2ccc(F)cc2)=NC(C(F)(F)F)(C(F)(F)F)C1NC(=O)c1ccc(N2CCCCC2)cc1 (stereo unspecified)

melting point [°C]	Compound
118 to 119	C#CCOc1nc(-n2ncc(C(=O)OCC)c2N)c(C(F)(F)F)cc1Cl
185 to 187	O=C1Nc2ccccc2CCC1(Cl)Cl
82 to 83.9	O=C(C[C@@H](CCCC1CCCCC1)c1nc(CNC2CCC2)no1)NO
190	Cc1cc(-c2ccc(C(F)(F)F)cc2)cc(-c2cccc(-c3cccc(S(=O)(=O)NC(=O)C(C)C)c3)n2)n1
130	CCCCCCCC(=O)c1ccc(OC(C)=O)c(C(=O)O)c1
98	Cc1c(Cc2cc(=O)n(C3CCCCC3)[nH]2)c2ccccc2n1C(=O)c1ccc(Cl)cc1
69 to 71	CCOC(=O)C(C)Oc1ncn(-c2ccc(Cl)c(Cl)c2)n1 (stereo unspecified)
202 to 203	CCC1NC(=O)N(C)C(=O)N1
60 to 62	COC(=O)CCc1ccc(O)c([N+](=O)[O-])c1
> 250	O=c1c2ccc(Cl)cc2[nH]c2c(O)nn(Cc3ccoc3)c(=O)c12
128 to 129	CC(=O)OC[C@H]1O[C@@H](c2nc(C(N)=O)c(N)[nH]2)[C@H](OC(C)=O)[C@@H]1OC(C)=O
79 to 80	CCCCCCCCCCCCCCCCCCCCCCC(NC(C)=O)(C(=O)OCC)C(=O)OCC
144	COc1cc2c(cc1OC)CN(CCCCc1ccc(NC(=O)c3cnc4ccccc4n3)cc1)CC2
73 to 74	CCOC(=O)CN(C(=O)CC)c1c(SC(F)(F)F)c(C)nn1-c1c(Cl)cc(C(F)(F)F)cc1Cl
185 to 187	Oc1cccc(Oc2ccc(Cl)nn2)c1
171 to 173	CC1CC(=O)N(CCO)N=C1c1ccc2c(c1)CCC(=O)N2C (stereo unspecified)
262 to 264	CC(C)NC1=NS(=O)(=O)c2ccc(CC(=O)O)cc2N1
128 to 133	C[C@H](NC(=O)Cc1cc(F)cc(F)c1)C(=O)N[C@@H]1C(=O)NCCS[C@@H]1c1ccccc1
156 to 157	CC(=O)N1CCS(=O)c2ccccc2C1 (stereo unspecified)

melting point [°C]	Compound
118	COc1ccc(S(=O)(=O)n2c(Cl)nc3c2c(=O)n(CC2CC2)c(=O)n3CC2CC2)cc1
186 to 190	CC(C)(C)C(=O)Nc1nc2[nH]c3cccc(Cl)c3c2c(=O)[nH]1
129 to 132	CCOC(=O)c1c(S)nc(-c2ccccc2)c([N+](=O)[O-])c1C(=O)OCC
157	CC(=O)N[C@H]1CC[C@H](CCN2CCN(c3nccc4ccoc34)CC2)CC1
187 to 189	O=C1c2cccc(O)c2CCC1CN1CCC(O)(c2ccccc2)CC1 (stereo unspecified)
112 to 120	O=C(Nc1c([N+](=O)[O-])cnn1-c1c(Cl)cc(C(F)(F)F)c(Cl)c1Cl)C(Cl)Cl
136 to 139	CCOc1ccc(Cl)cc1C(N)=O
272 to 273	Cc1c(N)ccc2c1C(=O)NS2(=O)=O
144	CN(C)CCSc1cc(NC(=O)OC(C)(C)C)c([N+](=O)[O-])cc1I
68.5 to 70	CCOC(=O)c1c(C(F)(F)F)nc(C(F)(F)F)c(C(=O)OC)c1N1CCCC1
167 to 168	Cn1cc(-c2cccc(C3NCCc4c3sc3c4CC(C)(C)C3)c2CO)cc(Nc2cnn3c2COCC3)c1=O (stereo unspecified)
160 to 161	CC(=O)OC(COc1ccc(C(=O)O)c(O)c1)c1ccc2c(c1)C(C)(C)CCC2(C)C (stereo unspecified)
213 to 215	CC(=O)OCC(=O)C1(OC(C)=O)CCC2C3C=C(C)C4=CC(=O)CCC4(C)C3CCC21C (stereo unspecified)
116	COC(=O)c1ccc(C(O)c2ccc(C(=O)OC)cc2)cc1
213 to 216	Cc1cc(NC(=O)c2c(Cl)cccc2Cl)c2nccc(N3CCN(C)C3=O)c2c1C
> 300	Cc1c(C)c(C(=O)O)c(C)c(C)c1C(=O)O
64 to 65	CN1C(=O)c2cccnc2N(CC(=O)OC(C)(C)C)c2ccccc21
91 to 92	COc1cc2c(cc1O)CCN(C(=O)NCCN(C(C)C)C(C)C)C2c1ccccc1 (stereo unspecified)
80	CCCCOc1ccc(Cl)cc1C(=O)NCCc1ccc(CC(=O)OCC)cc1

Second part, the compound before the results:

Compound	melting point [°C]
CCN(CC)c1nc(-c2ccncc2)nc2sc(C#N)c(C)c12	169 to 171
Cn1cc2cc3ncc(-c4ccc(Cl)s4)nc3cc2n1	222 to 224
Nc1nc2c(s1)CCN(CCCCCc1ccccc1)CC2	102 to 105
CCCOC(=NC#N)c1ccc(N)nc1	150
CN(CCO)S(=O)(=O)c1cc(NC(=O)c2cnn3c(C(F)F)cc(-c4ccc(C(F)(F)F)cc4)nc23)c(Cl)s1	231
C[C@@H](S[C@H]1CO[C@H](/C=C/c2ccc(C(F)(F)F)cc2)OC1)[C@](O)(Cn1cncn1)c1ccc(F)cc1F	73 to 75
CC12CCC(O)CC1CCC1C2CCC2(C)C(C(O)CO)CCC12 (stereo unspecified)	210 to 212
CC(Br)c1ccc(-c2nc3ccccc3o2)cc1 (stereo unspecified)	128 to 131
O=C1c2ccccc2C(=O)N1CSc1ccccn1	93 to 94
CN(C)C(=N[N+](=O)[O-])N(C#N)Cc1cnc(Cl)s1	152 to 155
Cc1nc2cc(-n3cccc3)ccc2s1	91 to 96
CCCCCCCCCCCCCCCC(=O)n1nnnc1C(F)(F)F	66 to 69
OC1CSC(Oc2ccc(-c3ccncc3)nc2Cl)C(O)C1O (stereo unspecified)	186
O=C1CCC(c2ccccc2)(c2ccccc2)C2CN(C(Cc3ccccc3)=NCc3ccccc3)CC12 (stereo unspecified)	165
COc1cn(-c2ccc(N3CC(F)(F)C(F)(F)C3)cc2F)nc(-c2ccnn2-c2ccccc2)c1=O	175 to 177
N#Cc1c(N2CCCCC2)cc(-c2ccc3ccccc3c2)c2c1-c1ccccc1C2	136 to 138
Nc1cccc(C2=NCCO2)c1	126 to 128
Cc1c(Br)ccc([N+](=O)[O-])c1C#N	116 to 118
Clc1ccc(NC2=Nc3ccccc3CS2)cc1Cl	207 to 208
CCCCC(=N)NC(=O)Nc1ccc(Cl)cc1	164 to 169
CCc1cc(C=O)c2ccc3cccc4ccc1c2c34	134 to 136
Cc1ccc2c(c1)CCN2c1ccccc1C#N	59 to 60

Compound	melting point [°C]
CCCCN(CCCC)c1ccc2cc(Cl)cnc2c1C#N	112
CCCc1cc(OC)c(OC)cc1Cc1cnc(N)nc1N	166 to 167
Cn1c(=O)cc(CCO)c2ccccc21	149 to 150
CCCOc1ccc(S(=O)(=O)NCc2ccncc2)cc1-c1nc2cc3nc[nH]c3cc2c(=O)[nH]1	189 to 190
O=C1c2ccc3c4cccc5cccc(c6ccc(c2c36)C(=O)N1CCCCCO)c54	274 to 276
CCCCS(=O)(=O)Nc1ccc(OCc2ccc3ccccc3n2)cc1	113
COc1ccc2c(-c3ccccn3)noc2c1Cl	164 to 166
O=C1c2ccccc2C(=O)N1CCCOc1cccc([N+](=O)[O-])c1	149 to 152
COc1ccc(C2(c3ccc(OC)cc3)CCN(CC[C@@H]3C=C4c5cccc6[nH]cc(c56)C[C@H]4N(C)C3)CC2)cc1	184 to 187
CC1(C)COC(c2ccc(N)cc2)=N1	227 to 230
CCCCCCCCCCCCCCCCOCCOCCOC(=O)NCc1ccccn1	57 to 59
NS(=O)(=O)c1ccc(-c2cnn(Cc3ccc(F)c(F)c3)c(=O)c2-c2ccc(F)cc2)cc1	253 to 255
CC(C)c1nc(CC(=O)N[C@H](C(=O)N[C@@H](Cc2ccccc2)C[C@H](O)[C@H](Cc2ccccc2)NC(=O)OCc2cncs2)C(C)C)cs1	153 to 155
COc1ccccc1CNc1ccc2c(CNC(=O)c3ccc(F)cc3)cccc2n1	162
Cc1ccc(NS(=O)(=O)Cc2ccccc2)c(OCc2ccccc2)c1CC(=O)O	132 to 134
Cn1cc2c(=O)n(-c3ccc(Cl)cc3)nc-2c2ccccc21	322 to 323
N#CC=Cc1ccc2c(c1)-c1c3c(c4c([nH]c5ccccc54)c1C2)C(=O)NC3	> 330
O=C(Cc1ccc(-c2ccc(C(CC3CCOCC3)c3ccc(S(=O)(=O)C4CC4)cc3)[nH]2)nc1)N1CCOCC1 (stereo unspecified)	202 to 203
CCOC1c2ccccc2-c2nccnc21 (stereo unspecified)	> 300
OC(CCN1CCC(c2ccc(F)cc2)CC1)c1ccc(Cc2ccc(Cl)cc2)cc1 (stereo unspecified)	94 to 95
CCOC(=O)Cc1ccc2cc(Br)ccc2n1	100 to 101
C#CCNC(=C[N+](=O)[O-])NCCSCc1nccs1	121 to 123
